What was measured:
[1] = target: 5-hydroxytryptamine receptor 7 (Rattus norvegicus, UniProt P32305)
[2] = target: 5-hydroxytryptamine receptor 7 (Cavia porcellus, UniProt P50407)
Sequence of 5-hydroxytryptamine receptor 7 (Cavia porcellus, UniProt P50407) (P50407 whole entry): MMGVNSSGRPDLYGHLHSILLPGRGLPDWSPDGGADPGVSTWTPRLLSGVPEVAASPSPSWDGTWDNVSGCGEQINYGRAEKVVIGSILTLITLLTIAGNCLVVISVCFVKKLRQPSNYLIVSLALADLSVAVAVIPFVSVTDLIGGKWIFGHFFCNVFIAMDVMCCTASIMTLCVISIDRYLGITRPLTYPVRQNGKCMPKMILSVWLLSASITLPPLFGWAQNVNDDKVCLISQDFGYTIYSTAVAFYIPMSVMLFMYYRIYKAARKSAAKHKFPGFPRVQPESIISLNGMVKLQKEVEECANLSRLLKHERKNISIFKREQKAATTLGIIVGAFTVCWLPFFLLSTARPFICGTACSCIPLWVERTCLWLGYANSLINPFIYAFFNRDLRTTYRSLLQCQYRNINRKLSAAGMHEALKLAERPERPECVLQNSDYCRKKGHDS

Sequence of 5-hydroxytryptamine receptor 7 (Rattus norvegicus, UniProt P32305) (P32305 whole entry): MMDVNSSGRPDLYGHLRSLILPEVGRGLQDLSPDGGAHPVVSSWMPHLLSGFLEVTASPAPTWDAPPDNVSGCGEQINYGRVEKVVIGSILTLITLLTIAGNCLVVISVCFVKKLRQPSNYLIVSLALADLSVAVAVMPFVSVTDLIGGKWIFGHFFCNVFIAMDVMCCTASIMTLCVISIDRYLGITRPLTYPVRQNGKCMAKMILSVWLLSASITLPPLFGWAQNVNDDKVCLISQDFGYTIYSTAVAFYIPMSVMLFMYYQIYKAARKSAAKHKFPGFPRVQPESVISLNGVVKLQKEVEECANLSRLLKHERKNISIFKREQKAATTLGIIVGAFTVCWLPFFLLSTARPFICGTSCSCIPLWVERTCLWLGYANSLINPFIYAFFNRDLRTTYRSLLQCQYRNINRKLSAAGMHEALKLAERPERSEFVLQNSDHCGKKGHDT

SMILES | Ki [1] [nM] | Ki [2] [nM]
Cc1nc2sccn2c(=O)c1CCN1CCC(=C(c2ccc(F)cc2)c2ccc(F)cc2)CC1 | 25.1 | 5.01
Cc1nc2n(c(=O)c1CCN1CCC(c3noc4cc(F)ccc34)CC1)CCCC2 [3-{2-[4-(6-Fluoro-benzo[d]isoxazol-3-yl)-piperidin-1-yl]-ethyl}-2-methyl-6,7,8,9-tetrahydro-pyrido[1,2-a]pyrimidin-4-one(risperidone)] | – | 0.4
CCN(CC)C(=O)[C@@H]1C=C2c3cccc4[nH]cc(c34)C[C@H]2N(C)C1 [(4R,7R)-N,N-diethyl-6-methyl-6,11-diazatetracyclo[7.6.1.0^{2,7}.0^{12,16}]hexadeca-1(16),2,9,12,14-pentaene-4-carboxamide] | – | 0.4
CC(C)NCC(O)COc1cccc2[nH]ccc12 (centres undefined) [LB-46] | > 10000 | 501
CN1C[C@@H](NS(=O)(=O)N(C)C)C[C@@H]2c3cccc4c3c(cn4C)C[C@H]21 [MESULERGINE] | 10 | 12.6
CN1C[C@H](CNC(=O)OCc2ccccc2)C[C@@H]2c3cccc4c3c(cn4C)C[C@H]21 [METERGOLINE] | 10 | 1.58
CNS(=O)(=O)Cc1ccc2[nH]cc(CCN(C)C)c2c1 [Sumax] | 25.1 | 100
NCCc1c[nH]c2ccc(O)cc12 [[3H]-5-HT] | – | 0.1
COc1ccc2[nH]cc(CCN)c2c1 [tryptamine, 5-Methoxy] | – | 0.25
